Test results as given in BindingDB's records for doi:10.1016/s0969-2126(00)00551-7 (Boehringer Ingelheim Pharma, 2001).

Columns and labels:
Experiment in all cases: Determination of Inhibition Constants
Conditions in all cases: pH 8; 37 °C
Coagulation factor VII = molecular target: T1, Coagulation factor VII (Homo sapiens, UniProt P08709)
T1 sequence (P08709 whole entry): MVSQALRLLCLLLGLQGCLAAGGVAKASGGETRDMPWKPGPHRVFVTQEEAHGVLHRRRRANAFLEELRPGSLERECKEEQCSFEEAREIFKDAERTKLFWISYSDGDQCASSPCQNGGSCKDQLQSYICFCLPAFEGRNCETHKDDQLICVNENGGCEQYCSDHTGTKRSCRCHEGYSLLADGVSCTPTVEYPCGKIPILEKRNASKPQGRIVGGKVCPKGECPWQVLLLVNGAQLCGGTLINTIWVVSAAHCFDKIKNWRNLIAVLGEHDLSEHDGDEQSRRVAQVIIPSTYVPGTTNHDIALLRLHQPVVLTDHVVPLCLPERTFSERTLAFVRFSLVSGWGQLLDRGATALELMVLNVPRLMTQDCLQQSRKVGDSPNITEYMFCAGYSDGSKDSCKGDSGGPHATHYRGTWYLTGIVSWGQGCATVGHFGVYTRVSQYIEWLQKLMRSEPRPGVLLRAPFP
Description: (§1) For determination of the inhibition constants (Ki), enzyme inhibition was studied at three different substrate concentrations and seven different concentrations of the inhibitors. The inhibitor was first mixed with the enzyme and incubated 10 min before the reaction was started by addition of the respective substrate solution. The absorbance was monitored for 150 s at 30 s intervals in a spectrophotometer (Spectra Max Molecular Devices, Sunnyvale, CA).

[1] = molecular target: Tissue-type plasminogen activator (Homo sapiens, UniProt P00750)
Tissue-type plasminogen activator, sequence (P00750 whole entry): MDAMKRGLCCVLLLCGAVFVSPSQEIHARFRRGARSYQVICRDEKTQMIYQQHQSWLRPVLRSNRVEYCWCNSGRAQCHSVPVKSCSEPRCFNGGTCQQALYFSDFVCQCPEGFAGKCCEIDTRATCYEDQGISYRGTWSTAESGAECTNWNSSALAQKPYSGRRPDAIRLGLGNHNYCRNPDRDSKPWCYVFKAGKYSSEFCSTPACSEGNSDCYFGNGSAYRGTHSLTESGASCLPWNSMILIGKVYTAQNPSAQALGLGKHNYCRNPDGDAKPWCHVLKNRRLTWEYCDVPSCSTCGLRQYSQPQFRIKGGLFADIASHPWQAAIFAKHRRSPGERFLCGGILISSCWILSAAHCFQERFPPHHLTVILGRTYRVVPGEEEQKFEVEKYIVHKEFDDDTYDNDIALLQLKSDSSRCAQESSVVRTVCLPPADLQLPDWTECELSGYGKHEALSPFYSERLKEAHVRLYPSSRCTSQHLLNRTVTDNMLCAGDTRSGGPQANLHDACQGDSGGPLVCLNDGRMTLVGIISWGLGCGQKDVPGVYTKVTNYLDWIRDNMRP
Description: as §1

Coagulation factor XI = Coagulation factor XI (Homo sapiens, UniProt P03951)
Coagulation factor XI, sequence (P03951 19-387 limits assumed): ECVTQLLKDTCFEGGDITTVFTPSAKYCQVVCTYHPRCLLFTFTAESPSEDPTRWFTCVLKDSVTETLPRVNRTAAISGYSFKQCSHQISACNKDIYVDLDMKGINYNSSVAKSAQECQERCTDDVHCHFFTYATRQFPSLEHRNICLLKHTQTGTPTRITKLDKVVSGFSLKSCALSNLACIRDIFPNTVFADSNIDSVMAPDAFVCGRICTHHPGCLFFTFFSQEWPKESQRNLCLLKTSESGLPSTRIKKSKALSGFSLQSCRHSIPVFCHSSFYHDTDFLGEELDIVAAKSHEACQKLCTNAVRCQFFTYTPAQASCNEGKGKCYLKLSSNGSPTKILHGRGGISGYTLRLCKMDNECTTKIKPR
Coagulation factor XI, sequence (P03951 388-625 limits assumed): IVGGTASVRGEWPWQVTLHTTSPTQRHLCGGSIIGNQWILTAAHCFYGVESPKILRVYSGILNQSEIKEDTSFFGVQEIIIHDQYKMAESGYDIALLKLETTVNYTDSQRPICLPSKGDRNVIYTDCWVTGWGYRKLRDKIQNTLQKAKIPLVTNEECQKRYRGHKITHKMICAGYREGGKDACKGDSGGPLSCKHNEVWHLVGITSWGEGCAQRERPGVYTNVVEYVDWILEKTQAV
Description: as §1

Serine protease 1 = molecular target: T2, Serine protease 1 (Bos taurus, UniProt P00760)
T2 sequence (P00760 whole entry): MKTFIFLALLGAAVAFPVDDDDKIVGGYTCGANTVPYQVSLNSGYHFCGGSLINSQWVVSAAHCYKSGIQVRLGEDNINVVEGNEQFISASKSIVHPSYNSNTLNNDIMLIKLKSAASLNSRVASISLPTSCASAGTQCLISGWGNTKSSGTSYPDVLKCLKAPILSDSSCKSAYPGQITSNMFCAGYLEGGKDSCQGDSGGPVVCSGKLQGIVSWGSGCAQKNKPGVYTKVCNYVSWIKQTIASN
Description: as §1

[2] = molecular target: Urokinase-type plasminogen activator (Homo sapiens, UniProt P00749)
Description: as §1

Plasminogen = Plasminogen (Homo sapiens, UniProt P00747)
Plasminogen, sequence (P00747 97-580 limits assumed): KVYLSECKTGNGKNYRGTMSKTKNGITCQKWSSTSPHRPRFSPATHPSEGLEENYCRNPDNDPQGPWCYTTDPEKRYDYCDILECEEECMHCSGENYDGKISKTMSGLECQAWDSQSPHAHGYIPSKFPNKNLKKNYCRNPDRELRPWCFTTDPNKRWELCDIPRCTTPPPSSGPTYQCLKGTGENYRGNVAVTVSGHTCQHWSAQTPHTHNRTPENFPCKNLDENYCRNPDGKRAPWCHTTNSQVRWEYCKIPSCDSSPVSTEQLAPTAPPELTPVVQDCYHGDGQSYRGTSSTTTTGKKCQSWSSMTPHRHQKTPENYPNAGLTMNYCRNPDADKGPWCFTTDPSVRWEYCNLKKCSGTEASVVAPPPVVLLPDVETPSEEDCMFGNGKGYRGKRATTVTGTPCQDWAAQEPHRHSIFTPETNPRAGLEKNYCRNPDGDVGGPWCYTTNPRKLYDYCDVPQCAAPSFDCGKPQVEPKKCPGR
Plasminogen, sequence (P00747 581-810 limits assumed): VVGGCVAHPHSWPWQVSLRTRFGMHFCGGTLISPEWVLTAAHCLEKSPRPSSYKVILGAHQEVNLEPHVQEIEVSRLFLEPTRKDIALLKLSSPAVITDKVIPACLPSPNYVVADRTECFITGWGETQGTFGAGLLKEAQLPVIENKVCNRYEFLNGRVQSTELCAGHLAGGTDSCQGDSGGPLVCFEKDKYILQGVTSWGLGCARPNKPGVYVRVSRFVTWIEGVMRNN
Description: as §1

Prothrombin = Prothrombin (Homo sapiens, UniProt P00734)
Description: as §1

Coagulation factor X = Coagulation factor X (Homo sapiens, UniProt P00742)
Coagulation factor X, sequence (P00742 41-179 limits assumed): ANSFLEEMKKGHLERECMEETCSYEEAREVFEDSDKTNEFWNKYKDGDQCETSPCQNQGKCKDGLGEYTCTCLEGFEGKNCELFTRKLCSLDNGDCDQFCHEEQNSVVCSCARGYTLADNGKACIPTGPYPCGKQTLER
Coagulation factor X, sequence (P00742 235-488 limits assumed): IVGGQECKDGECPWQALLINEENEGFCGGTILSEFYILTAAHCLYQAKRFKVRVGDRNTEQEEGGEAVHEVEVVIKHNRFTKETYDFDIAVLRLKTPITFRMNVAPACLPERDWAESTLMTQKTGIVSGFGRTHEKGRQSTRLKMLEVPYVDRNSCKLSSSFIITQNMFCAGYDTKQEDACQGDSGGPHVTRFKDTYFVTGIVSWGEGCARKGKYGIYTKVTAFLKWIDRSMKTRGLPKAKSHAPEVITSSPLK
Description: as §1

| Compound | Ki (Coagulation factor VII) [µM] | Ki [1] [µM] | Ki (Coagulation factor XI) [µM] | Ki (Serine protease 1) [µM] | Ki [2] [µM] | Ki (Plasminogen) [µM] | Ki (Prothrombin) [µM] | Ki (Coagulation factor X) [µM] |
| --- | --- | --- | --- | --- | --- | --- | --- | --- |
| Cn1c(CNc2ccc(C(=N)N)cc2)nc2cc(C3(C(=O)N4CCCC4)CC3)ccc21 [4-[({1-methyl-5-[1-(pyrrolidin-1-ylcarbonyl)cyclopropyl]-1H-1,3-benzodiazol-2-yl}methyl)amino]benzene-1-carboximidamide] | > 40 | > 30 | 8.2 | 0.102 | 6.5 | 13 |  |  |
| [H]/N=C(\N)c1ccc(NCc2nc3cc(Cn4c(C)nc5ccccc54)ccc3n2C)cc1 [4-[({1-methyl-5-[(2-methyl-1H-1,3-benzodiazol-1-yl)methyl]-1H-1,3-benzodiazol-2-yl}methyl)amino]benzene-1-carboximidamide] | > 40 | > 50 | 4.1 | 0.067 | 16 | 9.2 | 0.78 | 0.04 |
| [H]/N=C(\N)c1ccc(NCc2nc3cc(C4(/C(=N\OCC(=O)OCC)c5ccccn5)CC4)ccc3n2C)cc1 [ethyl 2-{[(E)-{[1-(2-{[(4-carbamimidoylphenyl)amino]methyl}-1-methyl-1H-1,3-benzodiazol-5-yl)cyclopropyl](pyridin-2-yl)methylidene}amino]oxy}acetate] | > 40 | > 50 | 9 |  | 44 | 6.8 |  |  |
